Source: patent US8530446B2, “Oral composition containing difructose anhydride” (Fancl Corporation, priority 2004, dated 2013)

System: equol production in the intestinal tract
Assay: Ability of DFA to increase equol production in the intestinal tract of rats (plasma equol by HPLC-UV)
Type: in vivo, Wistar-ST rats
Conditions: 20 days
Text: The ability of DFA to increase equol production in the intestinal tract was examined.
Twenty-seven male Wistar-ST rats (six weeks old) were raised with a solid feed for three days, after which they were divided into three groups by weight so that each group consisted of nine rats. Each group was given a base feed containing 0.25% of a food product containing 40% isoflavone (basal diet group), a feed consisting of the base feed whose sucrose was substituted by 3% with DFAIII (DFAIII group), or a feed consisting of the base feed whose sucrose was substituted by 3% with fructo-oligosaccharide (FOS group), and raised for twenty days. On day 20, blood was taken from each rat through the caudal vein and the equol level in blood plasma was measured using the HPLC-UV method.
In the table, a and b indicate that values denoted by different symbols have a significant difference between them.

Row | Compound | Effect of ingestion on equol level in blood plasma (in words) (rats, 3% in isoflavone-containing feed) | Equol (equol level in blood plasma) (male Wistar-ST rats, n=9/group, base feed with 0.25% of food product containing 40% isoflavone, sucrose substituted by 3% with test substance, caudal vein blood on day 20, HPLC-UV) [µmol]
1 | OC[C@H]1O[C@@]2(CO[C@]3(CO)O[C@H](CO)[C@@H](O)[C@@H]3O2)[C@@H](O)[C@@H]1O [DFA, difructose anhydride] | caused the equol level in blood plasma to rise | 
2 | OC[C@H]1O[C@@]2(CO[C@]3(CO)O[C@H](CO)[C@@H](O)[C@@H]3O2)[C@@H](O)[C@@H]1O [DFAIII, difructose anhydride] |  | 17.7 ± 1.81
